Data as given in PubChem BioAssay (NCI).
“And” between values parts separate entries of the source, which are not always exact repeats. Identical values can stand only once.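 Method: 48-hour compound exposure of cells in 96-well plates, five concentrations, linear interpolation of endpoints. The concentration for 50% growth inhibition is given as GI50. TGI: total growth inhibition.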

What was measured:
Assay in all cases: NCI anticancer screen, dose series, 48 h
786-0 renal = test system: 786-0 renal
A498 renal = test system: A498 renal
CCRF-CEM leukemia = test system: CCRF-CEM leukemia
HCC-2998 colon = test system: HCC-2998 colon
M14 melanoma = test system: M14 melanoma
NCI-H226 lung = test system: NCI-H226 lung
OVCAR-8 ovarian = test system: OVCAR-8 ovarian
RXF 393 renal = test system: RXF 393 renal
SN12C renal = test system: SN12C renal
U251 CNS = test system: U251 CNS

Structure (SMILES) | GI50 (786-0 renal) [µM] | TGI (786-0 renal) [µM] | GI50 (A498 renal) [µM] | TGI (A498 renal) [µM] | GI50 (CCRF-CEM leukemia) [µM] | TGI (CCRF-CEM leukemia) [µM] | GI50 (HCC-2998 colon) [µM] | TGI (HCC-2998 colon) | GI50 (M14 melanoma) [µM] | TGI (M14 melanoma) [µM] | GI50 (NCI-H226 lung) [µM] | TGI (NCI-H226 lung) [µM] | GI50 (OVCAR-8 ovarian) [µM] | TGI (OVCAR-8 ovarian) [µM] | GI50 (RXF 393 renal) [µM] | TGI (RXF 393 renal) [µM] | GI50 (SN12C renal) [µM] | TGI (SN12C renal) | GI50 (U251 CNS) [µM] | TGI (U251 CNS) [µM]
NC(CCl)=NCC12CC3CC(CC(C3)C1)C2 | 0.966 | 13.2 | 1.37 | 13.4 | 0.348 | 3.27 | 1.65 | 7.84 µM | 1.32 | 4.39 | 1.43 | 11.3 | 0.877 | 19.4 | 0.44 | 5.4 | 1.56 | 15.7 µM | 1.38 | 12.1
COc1ccc(-c2c(NC(=O)Nc3ccc(Cl)c(C(F)(F)F)c3)cnn2-c2ccc(S(N)(=O)=O)cc2)cc1 | 1.68 | 3.42 | 2.84 | 8.29 | 3 | 11.3 | 3.13 | 8.85 µM | 3.32 | 12 | 3.23 | 14.6 | 3.39 | 13 | 2.6 | 9.83 | 3.58 | 13.1 µM | 3.3 | 12.3
C[N+]1(CCNP(=S)(NCC[N+]2(C)Cc3c(ccc4c3OCO4)C3C2c2cc4c(cc2C[C@@H]3O)OCO4)NCC[N+]2(C)Cc3c(ccc4c3OCO4)C3C2c2cc4c(cc2C[C@@H]3O)OCO4)Cc2c(ccc3c2OCO3)C2C1c1cc3c(cc1C[C@H]2O)OCO3 (stereo partly drawn) | 5.22 |  | 1.54 |  |  | > 383 | 5.22 |  |  | < 0.00191 |  | 79.6 |  | < 0.00191 | 1.76 |  | 3.84 |  | 1.99 | 
COc1ccc(-c2oc3ncnc(N)c3c2-c2ccc(NC(=O)Nc3cc(C(F)(F)F)ccc3F)cc2)cc1 | 1.45 | 5.49 | 0.329 | 2.55 | 0.934 | 11.8 | 2.08 | 5.81 µM | 0.806 | 3.23 | 0.601 | 8.36 | 0.79 | 3.73 | 0.473 | 1.15 | 0.828 | 3.75 µM | 0.997 | 3.83
Cc1ccc(NC(=O)CCc2nnc3s/c(=C\C=C\c4ccccc4)c(=O)n23)cc1 |  | > 100 |  | > 100 |  | 74.3 |  | > 100 µM |  | > 100 |  | > 100 |  | 77.4 |  | > 100 |  | > 100 µM |  | > 100
NC1=C(O)/C(=N/NS(=O)(=O)c2ccccc2)C(c2ccc3c(c2)OCO3)O1 (stereo not drawn) |  | > 100 |  | > 100 |  | > 100 |  | > 100 µM |  | > 100 |  | > 100 |  | > 100 |  | > 100 |  | > 100 µM |  | > 100
Cc1ccc(S(=O)(=O)NC(Cc2ccccc2)C(=O)CCl)cc1 (stereo not drawn) |  | 27.8 |  | 31.7 |  | > 100 |  | 26.9 µM |  | 26.2 |  | 33.1 |  | 29.7 |  | 6.33 |  | 25.3 µM |  | 29.7
COc1cc(OCCCN2CCCC2)ccc1Nc1ncc(Cl)c(Nc2ccccc2P(C)(C)=O)n1 | 2.7 | 11.6 | 0.175 | 1.12 | 2.09 | 15.8 | 2.65 | 25.7 µM | 2.58 | 12.3 | 1.59 | 6.45 | 3.65 | 38.8 | 0.81 | 3.23 | 2.52 | 25.5 µM | 5.43 | 19.8
CC1(C)N=C(N)N=C(N)N1c1cccc(CCCCc2ccc(Cl)c(S(=O)(=O)F)c2)c1 | 2.67 | 16.3 | 16.4 | 52.9 | 0.764 | 17.6 | 1.92 | 16 µM | 3.21 | 17.4 | 8.38 | 28.5 | 9.28 | > 100 | 0.459 | 16.1 | 0.967 | 16.4 µM | 0.655 | 21.3
FC(F)(F)c1cccc(Oc2ccc(Nc3ncnc4ccc(OCCCN5CCOCC5)cc34)cc2Cl)c1 | 1.51 | 3.11 | 2.37 | 12.8 | 2.77 | 11.2 | 1.72 | 3.34 µM | 1.75 | 3.51 | 15 | 41 | 3.22 | 21.2 | 1.76 | 4.03 | 2.2 | 11.8 µM | 1.9 | 4.19
Cc1cc(C)c([I+]c2c(C)cc(C)cc2C)c(C)c1 | 0.749 | 2.11 | 1.56 | 3.64 | 0.365 | 2.24 | 0.415 | 1.73 µM | 0.44 | 1.69 | 0.505 | 1.92 | 0.286 | 1.09 | 0.398 | 1.55 | 0.301 | 1.21 µM | 0.32 | 1.38
O=C(O)C(Cc1ccccc1)N=Cc1nc(-c2ccccc2)oc1O (stereo not drawn) |  | > 100 |  | > 100 |  | > 100 |  | > 100 µM |  | > 100 |  | > 100 |  | > 100 |  | > 100 |  | > 100 µM |  | > 100
CC(=O)N(N=O)c1ccc(N(N=O)C(C)=O)cc1 |  | > 100 |  | > 100 |  | > 100 |  | > 100 µM |  | > 100 |  | > 100 |  | > 100 |  | > 100 |  | > 100 µM |  | > 100
Oc1c(CN2CCCCC2)ccc2cccnc12 | 2.72 | > 100 | 5.46 | 21.3 | 3.21 | > 100 | 6.6 | 32.8 µM | 2.3 | 8.06 | 2.41 | 16 | 3.18 | 22.8 | 4.15 | 34.8 | 4.62 | > 100 µM | 3.61 | 30.9
C/C(=N\NC(=O)c1ccccc1O)c1c(O)cc(C)oc1=O |  | > 100 |  | > 100 |  |  |  | > 100 µM |  | > 100 |  | > 100 |  | > 100 |  | > 100 |  | > 100 µM |  | > 100
CSc1nc2c(nc(N)n2C2OC(CO)C(O)C(O)C2O)c(=O)[nH]1 (stereo not drawn) |  | > 100 |  | > 100 |  | > 100 |  | > 100 µM |  | > 100 |  | > 100 |  | > 100 |  | > 100 |  | > 100 µM |  | > 100
Cn1c(=O)nc2n(-c3ccc(F)c(F)c3)c3ccccc3nc-2c1=O |  | > 100 |  | > 100 |  | 42.2 |  | 23.7 µM |  | 45 |  | > 100 |  | 68.1 |  | 72.5 |  | 53.8 µM |  | 36.2
CON1C(=O)C2(CCCCC2)C(=O)C12C=CC(C)CC2 (stereo not drawn) |  | > 100 |  | > 100 |  | > 100 |  | > 100 µM |  | > 100 |  | > 100 |  | > 100 |  | > 100 |  | > 100 µM |  | > 100
CCOc1ccc(Nc2ccnc3cc(Cl)ccc23)cc1 | 41.1 | > 100 | 2.61 | > 100 | > 100 | > 100 | > 100 | > 100 µM |  |  | 79.7 | > 100 | 79.9 | > 100 | 72.3 | > 100 | > 100 | > 100 µM | > 100 | > 100
C#Cc1cccc(Nc2nc(C)nc3cc(NC(=O)CCl)ccc23)c1 | 0.461 | 1.03 | 3.65 | 7.64 | 0.638 | 2.22 | 3.79 | 7.76 µM | 2.55 | 6.17 | 3.06 | 8.25 | 2.07 | 6.12 | 3.28 | 6.86 | 0.896 | 3.58 µM | 0.641 | 1.7
Cc1ccc(NC(=O)C(=O)C2C(=O)NC(=O)NC2=O)c(C)c1 |  | > 100 |  | > 100 |  | > 100 |  | > 100 µM |  | > 100 |  | 37.8 |  | > 100 |  | > 100 |  | 28.2 µM |  | > 100
CN1C(c2ccccc2)CC(=NO)CC1c1ccccc1 (stereo not drawn) | 95.7 | > 100 |  | > 100 | 29.2 | > 100 | 30.5 | > 100 µM and 81.6 µM |  | > 100 |  | > 100 | 54.1 | > 100 | 87.9 | > 100 | 30.6 | 58.9 µM and 97.1 µM |  | > 100
CCC(CO)Nc1nc(NCc2ccccc2)c2n[nH]c(C(C)C)c2n1 (stereo not drawn) | 6.68 | 21.5 | 11.6 | 24.4 | 6.55 | 52.6 | 12.6 | 26 µM | 6.21 | 20.2 | 23.8 | 60.8 | 8.98 | 31.1 | 5.89 | 21 | 14.1 | 31.7 µM | 11.4 | 25.3
